Laboratory results published in patent US7915022B2, “Carbonyl reductase, gene thereof and method of using the same” (priority 2004, dated 2011).

Columns and labels:
[1] = tested on: polypeptide consisting of the amino acid sequence shown in SEQ ID NO: 4 (carbonyl reductase), cell-free extract of E. coli HB101 (pNTOM4); experiment: Substrate specificity of polypeptide produced by transformant E. coli HB101 (pNTOM4); assay type: biochemical, Ogataea minuta var. minuta NBRC0975; settings: 1 mM substrate, 0.25 mM NADPH, pH 6.5, 30° C., 1 min; relative to activity on CBPB as 100%
Description: (§1) In 100 mM phosphate buffer (pH 6.5) containing 0.33% (v/v) dimethyl sulfoxide were dissolved a carbonyl compound to be a substrate to a final concentration of 1 mM, and a coenzyme NADPH to a final concentration of 0.25 mM, respectively. Thereto was added a cell-free extract of E. coli HB101 (pNTOM4) or E. coli HB101 (pNTOM3) prepared in Example 7, and the mixture was reacted at 30° C. for 1 min. The reduction activity on each carbonyl compound was calculated from the rate of decrease in the absorbance of the reaction mixture at a wavelength of 340 nm, and shown in Table 2 as a value relative to the activity on (3S)-1-chloro-3-tert-butoxycarbonylamino-4-phenyl-2-butanone as 100%.

[2] = tested on: polypeptide consisting of the amino acid sequence shown in SEQ ID NO: 3 (carbonyl reductase), cell-free extract of E. coli HB101 (pNTOM3); experiment: Substrate specificity of polypeptide produced by transformant E. coli HB101 (pNTOM3); assay type: biochemical, Ogataea minuta var. minuta NBRC0975; settings: 1 mM substrate, 0.25 mM NADPH, pH 6.5, 30° C., 1 min; relative to activity on CBPB as 100%
Description: as §1

**Q.** How did the “relative activity (%) E. coli HB101 (pNTOM4)” value [1] turn out when CCOC(=O)C(Cl)C(=O)c1ccccc1 (centres unmarked) [ethyl 2-chloro-3-oxo-3-phenylpropionate] was run?
**A.** 5%

**Q.** What about the “relative activity (%) E. coli HB101 (pNTOM3)” value [2] of the same molecule?
**A.** 716%
